From the supplement of paper PMC10307832

Key:
Test in all cases: relative viability (nuclei count vs DMSO), 5 days (fraction); higher = more cells survive
Everolimus + Linsitinib = compound: CO[C@H]1C[C@@H]2CC[C@@H](C)[C@@](O)(O2)C(=O)C(=O)N2CCCC[C@H]2C(=O)O[C@H]([C@H](C)C[C@@H]2CC[C@@H](OCCO)[C@H](OC)C2)CC(=O)[C@H](C)/C=C(\C)[C@@H](O)[C@@H](OC)C(=O)[C@H](C)C[C@H](C)/C=C/C=C/C=C/1C [Everolimus] + C[C@]1(O)C[C@@H](c2nc(-c3ccc4ccc(-c5ccccc5)nc4c3)c3c(N)nccn32)C1 [Linsitinib] (partner 1 µM)
How it was run: (§1)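 A single step with final 0.05% Triton X-100, 1% formaldehyde and 1 ug/ml Hoechst fixed the cells and stained nuclei 5 days after treatment. Lung cancer cell lines in 1536-well plates had been treated by pin tool the day after seeding with one drug alone or a fixed anchor-drug dose plus five library-drug doses (not always all listed) in √10 steps, and nuclei were counted on 4× images. Relative viability is the ratio of nuclei in treated wells to nuclei in vehicle wells, taken as the median of duplicate plates.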

Everolimus + Alpelisib = compound: CO[C@H]1C[C@@H]2CC[C@@H](C)[C@@](O)(O2)C(=O)C(=O)N2CCCC[C@H]2C(=O)O[C@H]([C@H](C)C[C@@H]2CC[C@@H](OCCO)[C@H](OC)C2)CC(=O)[C@H](C)/C=C(\C)[C@@H](O)[C@@H](OC)C(=O)[C@H](C)C[C@H](C)/C=C/C=C/C=C/1C [Everolimus] + Cc1nc(NC(=O)N2CCC[C@H]2C(N)=O)sc1-c1ccnc(C(C)(C)C(F)(F)F)c1 [Alpelisib] (partner 2 µM)
How it was run: as §1

Everolimus + Pictilisib = compound: CO[C@H]1C[C@@H]2CC[C@@H](C)[C@@](O)(O2)C(=O)C(=O)N2CCCC[C@H]2C(=O)O[C@H]([C@H](C)C[C@@H]2CC[C@@H](OCCO)[C@H](OC)C2)CC(=O)[C@H](C)/C=C(\C)[C@@H](O)[C@@H](OC)C(=O)[C@H](C)C[C@H](C)/C=C/C=C/C=C/1C [Everolimus] + CS(=O)(=O)N1CCN(Cc2cc3nc(-c4cccc5[nH]ncc45)nc(N4CCOCC4)c3s2)CC1 [Pictilisib] (partner 1 µM)
How it was run: as §1

Everolimus + Decitabine = compound: CO[C@H]1C[C@@H]2CC[C@@H](C)[C@@](O)(O2)C(=O)C(=O)N2CCCC[C@H]2C(=O)O[C@H]([C@H](C)C[C@@H]2CC[C@@H](OCCO)[C@H](OC)C2)CC(=O)[C@H](C)/C=C(\C)[C@@H](O)[C@@H](OC)C(=O)[C@H](C)C[C@H](C)/C=C/C=C/C=C/1C [Everolimus] + Nc1ncn([C@H]2C[C@H](O)[C@@H](CO)O2)c(=O)n1 [Decitabine] (partner 2 µM)
How it was run: as §1

Cell Line | relative viability (Everolimus + Linsitinib; first compound 0.01 µM) | relative viability (Everolimus + Linsitinib; first compound 0.03162 µM) | relative viability (Everolimus + Linsitinib; first compound 0.1 µM) | relative viability (Everolimus + Linsitinib; first compound 0.3162 µM) | relative viability (Everolimus + Linsitinib; first compound 1 µM) | relative viability (Everolimus + Alpelisib; first compound 0.01 µM) | relative viability (Everolimus + Alpelisib; first compound 0.03162 µM) | relative viability (Everolimus + Alpelisib; first compound 0.1 µM) | relative viability (Everolimus + Alpelisib; first compound 0.3162 µM) | relative viability (Everolimus + Alpelisib; first compound 1 µM) | relative viability (Everolimus + Pictilisib; first compound 0.01 µM) | relative viability (Everolimus + Pictilisib; first compound 0.03162 µM) | relative viability (Everolimus + Pictilisib; first compound 0.1 µM) | relative viability (Everolimus + Pictilisib; first compound 0.3162 µM) | relative viability (Everolimus + Pictilisib; first compound 1 µM) | relative viability (Everolimus + Decitabine; first compound 0.01 µM) | relative viability (Everolimus + Decitabine; first compound 0.03162 µM) | relative viability (Everolimus + Decitabine; first compound 0.1 µM) | relative viability (Everolimus + Decitabine; first compound 0.3162 µM) | relative viability (Everolimus + Decitabine; first compound 1 µM)
NCI-H3122 | 0.791 | 0.822 | 0.621 | 0.528 | 0.761 | 0.587 | 0.549 | 0.325 | 0.59 | 0.363 | 0.364 | 0.421 | 0.288 | 0.372 | 0.348 | 0.267 | 0.253 | 0.213 | 0.215 | 0.203
NCI-H1651 | 0.586 | 0.538 | 0.495 | 0.495 | 0.454 | 0.639 | 0.454 | 0.611 | 0.537 | 0.451 | 0.368 | 0.324 | 0.352 | 0.427 | 0.39 | 0.532 | 0.383 | 0.464 | 0.489 | 0.484
NCI-H838 | 0.329 | 0.372 | 0.303 | 0.326 | 0.318 | 0.392 | 0.385 | 0.382 | 0.343 | 0.347 | 0.222 | 0.219 | 0.247 | 0.208 | 0.262 | 0.435 | 0.444 | 0.356 | 0.384 | 0.392
NCI-H596 | 0.653 | 0.651 | 0.53 | 0.532 | 0.515 | 0.386 | 0.297 | 0.347 | 0.382 | 0.37 | 0.313 | 0.337 | 0.348 | 0.354 | 0.333 | 0.761 | 0.595 | 0.739 | 0.69 | 0.605
SK-LU-1 | 0.501 | 0.66 | 0.552 | 0.614 | 0.631 | 0.46 | 0.471 | 0.565 | 0.555 | 0.661 | 0.296 | 0.307 | 0.289 | 0.341 | 0.345 | 0.411 | 0.474 | 0.474 | 0.516 | 0.524
NCI-H441 | 0.504 | 0.302 | 0.289 | 0.402 | 0.401 | 0.515 | 0.575 | 0.582 | 0.564 | 0.461 | 0.272 | 0.358 | 0.296 | 0.282 | 0.331 | 0.257 | 0.243 | 0.194 | 0.261 | 0.29
NCI-H650 | 0.53 |  | 0.506 | 0.512 | 0.557 | 1.05 |  | 0.752 | 0.592 | 0.587 | 0.688 |  | 0.498 | 0.569 | 0.505 | 0.316 | 0.287 | 0.335 | 0.281 | 0.318
SK-MES-1 | 0.964 | 0.661 | 0.689 | 0.606 | 0.511 | 0.486 | 0.461 |  | 0.44 | 0.368 | 0.281 | 0.243 | 0.265 | 0.236 | 0.215 | 0.346 | 0.362 | 0.335 | 0.345 | 0.501
NCI-H1792 | 0.449 | 0.38 | 0.202 | 0.148 | 0.159 | 0.618 | 0.5 | 0.312 | 0.222 | 0.212 | 0.189 | 0.14 | 0.121 | 0.148 | 0.105 | 0.396 | 0.338 | 0.249 | 0.276 | 0.199
NCI-H1355 | 0.412 | 0.322 | 0.348 | 0.349 | 0.336 | 0.415 | 0.277 | 0.309 | 0.327 | 0.321 | 0.251 | 0.238 | 0.181 | 0.265 | 0.275 | 0.353 | 0.3 | 0.305 | 0.318 | 0.261
SW 1573 | 0.615 | 0.454 | 0.506 | 0.401 | 0.386 | 0.449 | 0.374 | 0.441 | 0.334 | 0.346 | 0.303 | 0.341 | 0.28 | 0.304 | 0.249 | 0.268 | 0.331 | 0.298 | 0.306 | 0.338
A549 | 0.484 | 0.308 | 0.231 | 0.241 | 0.223 | 0.328 | 0.292 | 0.272 | 0.323 | 0.204 | 0.16 | 0.178 | 0.166 | 0.182 | 0.192 | 0.193 | 0.194 | 0.179 | 0.174 | 0.193
NCI-H2347 | 0.912 | 0.911 | 0.581 | 0.798 | 0.769 | 0.979 | 0.872 | 0.564 | 0.783 | 0.826 | 0.288 | 0.281 | 0.4 | 0.368 | 0.358 | 0.567 | 0.509 | 0.553 | 0.526 | 0.548
LCLC-97TM1 | 0.141 | 0.142 | 0.147 | 0.129 | 0.151 | 0.204 | 0.178 | 0.164 | 0.167 | 0.139 | 0.126 | 0.123 | 0.128 | 0.135 | 0.144 | 0.197 | 0.205 | 0.184 | 0.208 | 0.218
EMC-BAC-2 | 0.587 | 0.542 | 0.532 | 0.517 | 0.501 | 0.499 | 0.46 | 0.388 | 0.461 | 0.481 | 0.368 | 0.349 | 0.298 | 0.42 | 0.39 | 0.743 | 0.81 | 0.659 |  | 0.755
